Two compounds from ChEMBL document CHEMBL1201862, “PubChem BioAssay data set” (2004) can be followed below.

Broadly, the IC50 is the point on the concentration scale where inhibition reaches its midpoint. By EC50 is commonly meant the concentration that produces a half-maximal response.

The source made the active and inactive calls. Where only a bound is given, the exact number is not on record here.

In assay [1] the target is T1, Tyrosine-protein phosphatase non-receptor type 22 (Homo sapiens, UniProt Q9Y2R2).
T1 sequence (Q9Y2R2 whole entry): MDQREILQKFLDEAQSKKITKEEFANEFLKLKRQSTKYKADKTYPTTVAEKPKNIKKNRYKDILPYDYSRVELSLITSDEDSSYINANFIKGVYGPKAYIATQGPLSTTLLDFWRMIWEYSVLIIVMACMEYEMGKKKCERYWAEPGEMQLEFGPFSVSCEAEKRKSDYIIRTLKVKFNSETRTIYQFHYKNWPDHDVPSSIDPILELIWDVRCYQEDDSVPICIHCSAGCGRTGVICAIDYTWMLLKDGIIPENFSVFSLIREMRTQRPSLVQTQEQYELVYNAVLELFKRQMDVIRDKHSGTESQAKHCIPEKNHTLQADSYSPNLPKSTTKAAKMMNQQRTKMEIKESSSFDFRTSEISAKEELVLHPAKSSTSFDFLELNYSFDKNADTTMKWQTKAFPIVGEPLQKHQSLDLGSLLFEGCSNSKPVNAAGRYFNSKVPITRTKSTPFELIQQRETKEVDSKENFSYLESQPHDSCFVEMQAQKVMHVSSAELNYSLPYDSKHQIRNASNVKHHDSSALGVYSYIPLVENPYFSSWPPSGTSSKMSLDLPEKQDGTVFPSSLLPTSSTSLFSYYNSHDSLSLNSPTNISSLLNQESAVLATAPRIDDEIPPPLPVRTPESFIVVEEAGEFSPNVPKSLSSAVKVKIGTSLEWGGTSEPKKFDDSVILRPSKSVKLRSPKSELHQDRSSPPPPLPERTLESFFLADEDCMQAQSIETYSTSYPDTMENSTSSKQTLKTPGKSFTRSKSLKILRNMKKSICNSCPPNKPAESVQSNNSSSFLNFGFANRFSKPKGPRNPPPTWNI
In words: inhibitors of LYP phosphatase, biochemical, fluorescence intensity, uHTS (AID 1779).

In assay [2] the target is T2, Apoptotic protease-activating factor 1 (Homo sapiens, UniProt O14727).
T2 sequence (O14727 whole entry): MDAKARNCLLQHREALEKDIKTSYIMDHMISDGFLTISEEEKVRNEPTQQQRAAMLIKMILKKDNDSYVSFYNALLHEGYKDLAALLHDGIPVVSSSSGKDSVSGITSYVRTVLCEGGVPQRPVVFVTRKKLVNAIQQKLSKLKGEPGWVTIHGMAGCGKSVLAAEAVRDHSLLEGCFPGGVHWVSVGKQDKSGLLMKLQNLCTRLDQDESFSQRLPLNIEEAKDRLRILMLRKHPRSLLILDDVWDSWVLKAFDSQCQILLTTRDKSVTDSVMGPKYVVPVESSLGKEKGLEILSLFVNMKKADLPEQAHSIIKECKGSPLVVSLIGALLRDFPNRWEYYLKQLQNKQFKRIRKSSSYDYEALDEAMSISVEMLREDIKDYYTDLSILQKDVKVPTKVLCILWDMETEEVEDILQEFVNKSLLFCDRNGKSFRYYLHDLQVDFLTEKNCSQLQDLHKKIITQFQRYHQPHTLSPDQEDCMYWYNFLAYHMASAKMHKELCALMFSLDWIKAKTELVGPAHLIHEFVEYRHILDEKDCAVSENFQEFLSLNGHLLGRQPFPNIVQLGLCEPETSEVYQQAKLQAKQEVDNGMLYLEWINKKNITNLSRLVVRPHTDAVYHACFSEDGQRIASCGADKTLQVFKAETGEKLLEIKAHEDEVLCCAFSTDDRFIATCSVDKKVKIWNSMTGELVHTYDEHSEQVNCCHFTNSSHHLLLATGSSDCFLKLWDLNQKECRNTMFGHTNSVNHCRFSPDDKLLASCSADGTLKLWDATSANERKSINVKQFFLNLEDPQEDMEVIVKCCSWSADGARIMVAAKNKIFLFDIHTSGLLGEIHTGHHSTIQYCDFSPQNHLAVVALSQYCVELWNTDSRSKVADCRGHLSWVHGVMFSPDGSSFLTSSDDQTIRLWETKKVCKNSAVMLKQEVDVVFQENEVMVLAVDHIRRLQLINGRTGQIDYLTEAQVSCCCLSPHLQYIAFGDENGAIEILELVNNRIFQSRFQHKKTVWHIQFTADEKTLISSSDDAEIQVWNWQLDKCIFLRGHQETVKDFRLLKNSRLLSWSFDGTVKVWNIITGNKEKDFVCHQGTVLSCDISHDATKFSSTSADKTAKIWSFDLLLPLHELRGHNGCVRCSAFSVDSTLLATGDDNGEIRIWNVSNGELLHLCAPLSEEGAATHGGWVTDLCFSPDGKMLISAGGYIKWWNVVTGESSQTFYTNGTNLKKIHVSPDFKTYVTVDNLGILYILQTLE
In words: activation of Apaf-1 mediated apoptosis – fluorescent, uHTS hits, dose response (AID 588554). It is filed as functional.

For assay [3], the target named is T3, Mannose-6-phosphate isomerase (Homo sapiens, UniProt P34949).
T3 sequence (P34949 whole entry): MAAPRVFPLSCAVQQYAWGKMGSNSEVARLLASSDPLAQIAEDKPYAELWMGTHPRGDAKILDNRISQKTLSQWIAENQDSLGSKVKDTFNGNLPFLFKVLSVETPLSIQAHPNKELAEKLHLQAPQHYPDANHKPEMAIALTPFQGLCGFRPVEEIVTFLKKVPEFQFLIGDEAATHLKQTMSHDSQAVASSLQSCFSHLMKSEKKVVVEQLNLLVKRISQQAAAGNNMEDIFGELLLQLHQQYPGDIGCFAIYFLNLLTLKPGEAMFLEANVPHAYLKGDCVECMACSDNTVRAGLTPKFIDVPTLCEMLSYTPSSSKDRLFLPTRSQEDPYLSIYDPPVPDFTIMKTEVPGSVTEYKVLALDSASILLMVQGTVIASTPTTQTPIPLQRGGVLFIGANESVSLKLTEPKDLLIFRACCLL
In words: inhibitors of human PMI, primary screen, biochemical, fluorescence intensity, coupled assay (AID 1209).

On to `COc1ccc(/C=C2\SC(=S)N(CCC(=O)Nc3ccc(C(=O)O)cc3)C2=O)cc1OC`, for which the IC50 in assay [1] is 4.29 µM (active). The EC50 in assay [2] was 9.36 µM (active).

Regarding `COc1ccc(Nc2ccc3c(c2)=NC2(CCCCC2)[N+]=3[O-])cc1`, the IC50 in assay [3] is given as > 50 µM (not active).
